According to patent US20240343694A1, “PYRIMIDINE DERIVATIVE, METHOD FOR PREPARING SAME, AND PHARMACEUTICAL COMPOSITION FOR PREVENTING OR TREATING CANCER COMPRISING SAME AS ACTIVE INGREDIENT” (KOREA RESERARCH INSTITUTE OF CHEMICAL TECHNOLOGY, priority 2021, published 2024):
pIC50: −log10 of the molar value.

Legend:
[1] = test system: Ba/F3 EGFR V769_D770insASV; assay: Growth inhibition of Ba/F3 EGFR mutant cells (CellTiter-Glo); format: cell-based; conditions: 72 hours
How it was run: (§1)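 Ba/F3 cells expressing either EGFR insertion mutant were seeded at 1,000 cells/well and dosed 24 h later at eight concentrations from 0 to 10 μM. After 72 h, viability was read by CellTiter-Glo ATP signal. IC50 (μM) was fitted from the eight-point curves.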

[2] = test system: Ba/F3 EGFR D770_N771insSVD; assay: as above; format: cell-based; conditions: Ba/F3 EGFR-D770-N771ins_SVD, 72 hours
How it was run: as §1

[3] = biological target: EGFR A763_Y764insFHEA (Homo sapiens (Human), UniProt P00533, INS763FHEA); assay: HTRF inhibitory activity against EGFR mutant enzyme (EGFR A763_Y764insFHEA); format: biochemical; conditions: recombinant enzyme, 37° C. for 2 hours
Sequence of EGFR A763_Y764insFHEA (P00533 other isoform, or with tags, fused parts or gaps del 1-694/ins FHEA behind 763 limits assumed): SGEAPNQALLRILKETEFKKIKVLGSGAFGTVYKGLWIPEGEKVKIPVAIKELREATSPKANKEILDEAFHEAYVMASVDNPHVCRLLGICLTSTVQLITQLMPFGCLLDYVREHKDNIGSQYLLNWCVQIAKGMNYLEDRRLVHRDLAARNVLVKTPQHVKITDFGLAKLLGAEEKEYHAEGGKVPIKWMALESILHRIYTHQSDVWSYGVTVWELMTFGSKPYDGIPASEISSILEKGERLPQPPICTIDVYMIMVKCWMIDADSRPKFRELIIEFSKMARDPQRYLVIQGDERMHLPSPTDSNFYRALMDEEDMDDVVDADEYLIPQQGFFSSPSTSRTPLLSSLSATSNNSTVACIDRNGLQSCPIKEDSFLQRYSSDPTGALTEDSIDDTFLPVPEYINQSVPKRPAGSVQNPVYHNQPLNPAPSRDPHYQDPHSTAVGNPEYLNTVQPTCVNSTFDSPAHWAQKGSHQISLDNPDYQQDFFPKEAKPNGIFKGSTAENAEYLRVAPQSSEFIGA
How it was run: (§2)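 Recombinant EGFR del19 or A763_Y764insFHEA was premixed with compound in 50 mM Tris pH 7.5 with 7.5 mM MgCl2 and 1 mM DTT. ATP (50 mM as printed) and biotin-peptide (0.5 mM) were added and reacted 2 h at 37 °C. The HTRF 665/615 read used streptavidin-XL665 and Eu anti-phosphotyrosine. IC50 was fitted from 7 concentrations.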

[4] = biological target: EGFR del19 (Homo sapiens (Human), UniProt P00533, DEL746-750); assay: HTRF inhibitory activity against EGFR mutant enzyme (EGFR del19); format: biochemical; conditions: recombinant enzyme, 37° C. for 2 hours
Sequence of EGFR del19 (P00533 other isoform, or with tags, fused parts or gaps del 1-668/del 746-750 limits assumed): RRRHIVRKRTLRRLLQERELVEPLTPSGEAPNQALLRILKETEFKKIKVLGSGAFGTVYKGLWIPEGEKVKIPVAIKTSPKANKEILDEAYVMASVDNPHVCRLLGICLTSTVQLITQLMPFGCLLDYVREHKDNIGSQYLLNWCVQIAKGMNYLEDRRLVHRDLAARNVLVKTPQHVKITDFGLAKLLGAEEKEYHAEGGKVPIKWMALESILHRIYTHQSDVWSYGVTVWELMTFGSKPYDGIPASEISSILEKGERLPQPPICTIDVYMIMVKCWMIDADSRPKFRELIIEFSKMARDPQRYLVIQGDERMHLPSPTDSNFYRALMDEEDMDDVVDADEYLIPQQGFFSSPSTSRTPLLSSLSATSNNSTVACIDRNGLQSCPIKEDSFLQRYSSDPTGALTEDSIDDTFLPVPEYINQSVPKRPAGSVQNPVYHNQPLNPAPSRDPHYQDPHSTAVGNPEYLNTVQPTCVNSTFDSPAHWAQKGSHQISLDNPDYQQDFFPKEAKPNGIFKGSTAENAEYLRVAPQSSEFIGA
How it was run: as §2

[5] = biological target: HER2 A775_G776insYVMA (Homo sapiens (Human), UniProt P04626, INS775YVMA); assay: HTRF inhibitory activity against HER2 mutant enzyme; format: biochemical; conditions: recombinant enzyme, 37° C. for 2 hours
Sequence of HER2 A775_G776insYVMA (P04626 other isoform, or with tags, fused parts or gaps del 1-675/ins YVMA behind 775 limits assumed): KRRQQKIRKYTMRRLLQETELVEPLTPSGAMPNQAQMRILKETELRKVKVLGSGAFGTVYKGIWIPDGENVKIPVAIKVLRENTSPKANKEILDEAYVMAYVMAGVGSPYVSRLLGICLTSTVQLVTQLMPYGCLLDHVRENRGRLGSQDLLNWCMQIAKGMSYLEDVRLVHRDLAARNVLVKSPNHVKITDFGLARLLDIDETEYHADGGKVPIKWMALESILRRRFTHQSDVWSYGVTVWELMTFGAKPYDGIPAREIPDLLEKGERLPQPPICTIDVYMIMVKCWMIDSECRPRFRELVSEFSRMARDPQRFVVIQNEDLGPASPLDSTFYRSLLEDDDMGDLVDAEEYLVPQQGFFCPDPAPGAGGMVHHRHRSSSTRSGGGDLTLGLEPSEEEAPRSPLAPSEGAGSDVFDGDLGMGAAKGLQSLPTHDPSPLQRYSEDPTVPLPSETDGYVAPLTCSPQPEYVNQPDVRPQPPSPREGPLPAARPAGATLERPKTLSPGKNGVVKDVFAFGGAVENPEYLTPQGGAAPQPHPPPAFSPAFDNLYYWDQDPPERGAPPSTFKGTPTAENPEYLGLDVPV
How it was run: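 Recombinant HER2 A775_G776insYVMA preincubated with compound, then […] and biotinylated peptide ([…]) added; 2 h at 37 °C in Tris-HCl pH 7.5 buffer with MgCl2, DTT. HTRF detection (Eu anti-phosphotyrosine/streptavidin-XL665); IC50 from 7 concentrations.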

[6] = test system: Ba/F3 HER2 A775_G776insYVMA; assay: Growth inhibition of Ba/F3 HER2 mutant cells (CellTiter-Glo); format: cell-based; conditions: Mus musculus, BaF3, 72 hours
How it was run: (§3)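 Ba/F3 cells carrying HER2 A775_G776insYVMA or G776delinsVC were seeded at 1,000 cells/well and dosed 24 h later at 0.01-10 μM (8 concentrations including 0). After 72 h, viability was read as cellular ATP by CellTiter-Glo luminescence, and IC50 values were calculated from the 8-point curves.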

[7] = test system: Ba/F3 HER2 G776delinsVC; assay: as above; format: cell-based; conditions: Mus musculus, BaF3, 72 hours
How it was run: as §3

`C=CC(=O)Nc1cc(Nc2ncc(Cl)c(Nc3ccc(C)c(C)c3NC(C)=O)n2)c(OC)cc1N(C)CCN(C)C` [Example 84, N-(5-((4-((2-acetamido-3,4-dimethylphenyl)amino)-5-chloropyrimidin-2-yl)amino)-2-((2-(dimethylamino)ethyl)(methyl)amino)-4-methoxyphenyl)acrylamide] gave a pIC50 [1] of 7.30 to 7.52, a pIC50 [2] of 7.30 to 7.52 and a pIC50 [3] of 8.52. The pIC50 [4] was 9.00, the pIC50 [5] was 7.28 and the pIC50 [6] was under 7.00. For the same molecule, the pIC50 [7] was over 8.00.

In the case of `C=CC(=O)Nc1cc(Nc2ncc(Cl)c(Nc3cccc(C(C)C)c3N(C)S(C)(=O)=O)n2)c(OC)cc1N(C)CCN(C)C` [Example 37, N-(5-((5-chloro-4-((3-isopropyl-2-(N-methylmethylsulfonamido)phenyl)amino)pyrimidin-2-yl)amino)-2-((2-(dimethylamino)ethyl)(methyl)amino)-4-methoxyphenyl)acrylamide], the pIC50 [1] was 7.00 to 7.30, the pIC50 [2] was 7.00 to 7.30 and the pIC50 [3] was 8.70. For the same molecule, the pIC50 [4] was over 9.00, the pIC50 [5] was 7.59 and the pIC50 [6] was 7.00 to 7.30. It also gave a pIC50 [7] of 7.30 to 7.52.

Work on `C=CC(=O)Nc1cc(Nc2ncc(Cl)c(Nc3cccc(C)c3NC(C)=O)n2)c(OC)cc1N(C)CCN(C)C` [Example 86, N-(5-((4-((2-acetamido-3-methylphenyl)amino)-5-chloropyrimidin-2-yl)amino)-2-((2-(dimethylamino)ethyl)(methyl)amino)-4-methoxyphenyl)acrylamide] yielded a pIC50 [1] of 7.30 to 7.52, a pIC50 [2] of 7.30 to 7.52 and a pIC50 [3] of 7.70. The pIC50 [4] was 8.70, the pIC50 [5] was 6.80 and the pIC50 [6] was under 7.00. For the same molecule, the pIC50 [7] was over 8.00.

With `C=CC(=O)Nc1cc(Nc2ncc(Cl)c(Nc3ccc(C)cc3N(C)S(C)(=O)=O)n2)c(OC)cc1N(C)CCN(C)C` [Example 45, N-(5-((5-chloro-4-((4-methyl-2-(N-methylmethylsulfonamido)phenyl)amino)pyrimidin-2-yl)amino)-2-((2-(dimethylamino)ethyl)(methyl)amino)-4-methoxyphenyl)acrylamide] the pIC50 [1] was over 8.00, the pIC50 [2] was over 8.00 and the pIC50 [3] was over 9.00. For the same molecule, the pIC50 [4] was over 9.00, the pIC50 [5] was 8.10 and the pIC50 [6] was over 8.00. The pIC50 [7] was over 8.00.

`C=CC(=O)Nc1cc(Nc2ncc(Cl)c(Nc3ccccc3N(C)S(=O)(=O)CC)n2)c(OC)cc1N(C)CCN(C)C` [Example 30, N-(5-((5-chloro-4-((2-(N-methylethylsulfonamido)phenyl)amino)pyrimidin-2-yl)amino)-2-((2-(dimethylamino)ethyl)(methyl)amino)-4-methoxyphenyl)acrylamide] was tested, and the pIC50 [1] was over 8.00, the pIC50 [2] was 7.30 to 7.52 and the pIC50 [3] was over 9.00. The pIC50 [4] was over 9.00, the pIC50 [5] was 8.40 and the pIC50 [6] was 7.30 to 7.52. The pIC50 [7] was over 8.00.

Molecule `C=CC(=O)Nc1cc(Nc2ncc(Cl)c(Nc3ccccc3N(CC)S(C)(=O)=O)n2)c(OC)cc1N(C)CCN(C)C` [Example 31, N-(5-((5-chloro-4-((2-(N-ethylmethylsulfonamido)phenyl)amino)pyrimidin-2-yl)amino)-2-((2-(dimethylamino)ethyl)(methyl)amino)-4-methoxyphenyl)acrylamide] has a pIC50 [1] of over 8.00, a pIC50 [2] of 7.30 to 7.52 and a pIC50 [3] of over 9.00. It also gave a pIC50 [4] of over 9.00, a pIC50 [5] of 9.52 and a pIC50 [6] of over 8.00. It also gave a pIC50 [7] of over 8.00.

With `C=CC(=O)Nc1cc(Nc2ncc(Cl)c(Nc3cccc4c3N(S(C)(=O)=O)CC4)n2)c(OC)cc1N1CCC(N2CCN(C)CC2)CC1` [Example 59, N-(5-((5-chloro-4-((1-(methylsulfonyl)indolin-7-yl)amino)pyrimidin-2-yl)amino)-4-methoxy-2-(4-(4-methylpiperazin-1-yl)piperidin-1-yl)phenyl)acrylamide] the pIC50 [1] was 7.00 to 7.30, the pIC50 [2] was 7.00 to 7.30 and the pIC50 [3] was over 9.00. The pIC50 [4] was over 9.00, the pIC50 [5] was 7.70 and the pIC50 [6] was 7.00 to 7.30. The pIC50 [7] was 7.00 to 7.30.

`C=CC(=O)Nc1cc(Nc2ncc(Cl)c(Nc3cccc4c3N(S(C)(=O)=O)CC4)n2)c(OC)cc1N(C)CCN(C)C` [Example 55, N-(5-((5-chloro-4-((1-(methylsulfonyl)indolin-7-yl)amino)pyrimidin-2-yl)amino)-2-((2-(dimethylamino)ethyl)(methyl)amino)-4-methoxyphenyl)acrylamide] showed a pIC50 [1] of over 8.00, a pIC50 [2] of over 8.00 and a pIC50 [3] of over 9.00. It also gave a pIC50 [4] of over 9.00, a pIC50 [5] of over 9.00 and a pIC50 [6] of over 8.00. It also gave a pIC50 [7] of over 8.00.

For `C=CC(=O)Nc1cc(Nc2nccc(Nc3cccc4c3N(C(C)=O)CC4)n2)c(OC)cc1N(C)CCN(C)C` [Example 100, N-(5-((4-((1-acetylindolin-7-yl)amino)pyrimidin-2-yl)amino)-2-((2-(dimethylamino)ethyl)(methyl)amino)-4-methoxyphenyl)acrylamide], the pIC50 [1] was 7.52 to 8.00, the pIC50 [2] was 7.52 to 8.00 and the pIC50 [3] was 8.05. For the same molecule, the pIC50 [4] was 8.52, the pIC50 [5] was 6.65 and the pIC50 [6] was under 7.00. For the same molecule, the pIC50 [7] was over 8.00.

Molecule `C=CC(=O)Nc1cc(Nc2ncc(Cl)c(Nc3cccc4c3N(C(C)=O)CC4)n2)c(OC)cc1N(C)CCN(C)C` [Example 91, N-(5-((4-((1-acetylindolin-7-yl)amino)-5-chloropyrimidin-2-yl)amino)-2-((2-(dimethylamino)ethyl)(methyl)amino)-4-methoxyphenyl)acrylamide] has a pIC50 [1] of over 8.00, a pIC50 [2] of over 8.00 and a pIC50 [3] of 9.00. The pIC50 [4] was over 9.00, the pIC50 [5] was 8.22 and the pIC50 [6] was over 8.00. The pIC50 [7] was over 8.00.

`C=CC(=O)Nc1cc(Nc2ncc(Cl)c(Nc3cccc4c3N(C(=O)CC)CCC4)n2)c(OC)cc1N(C)CCN(C)C` [Example 94, N-(5-((5-chloro-4-((1-propionyl-1,2,3,4-tetrahydroquinolin-8-yl)amino)pyrimidin-2-yl)amino)-2-((2-(dimethylamino)ethyl)(methyl)amino)-4-methoxyphenyl)acrylamide] gave a pIC50 [1] of 7.52 to 8.00, a pIC50 [2] of 7.52 to 8.00 and a pIC50 [3] of 7.66. The pIC50 [4] was 8.40, the pIC50 [5] was 6.53 and the pIC50 [6] was under 7.00. It also gave a pIC50 [7] of over 8.00.

For `C=CC(=O)Nc1cc(Nc2ncc(Cl)c(Nc3cccc4c3N(C(C)=O)CCC4)n2)c(OC)cc1N(C)CCN(C)C` [Example 95, N-(5-((4-((1-acetyl-1,2,3,4-tetrahydroquinolin-8-yl)amino)-5-chloropyrimidin-2-yl)amino)-2-((2-(dimethylamino)ethyl)(methyl)amino)-4-methoxyphenyl)acrylamide], the pIC50 [1] was 7.52 to 8.00, the pIC50 [2] was 7.52 to 8.00 and the pIC50 [3] was 7.96. The pIC50 [4] was 8.70, the pIC50 [5] was 7.27 and the pIC50 [6] was 7.30 to 7.52. The pIC50 [7] was over 8.00.

In the case of `C=CC(=O)Nc1cc(Nc2ncc(Cl)c(Nc3ccc(C)cc3NS(C)(=O)=O)n2)c(OC)cc1N(C)CCN(C)C` [Example 46, N-(5-((5-chloro-4-((4-methyl-2-(methylsulfonamido)phenyl)amino)pyrimidin-2-yl)amino)-2-((2-(dimethylamino)ethyl)(methyl)amino)-4-methoxyphenyl)acrylamide], the pIC50 [1] was 7.30 to 7.52, the pIC50 [2] was over 8.00 and the pIC50 [3] was over 9.00. For the same molecule, the pIC50 [4] was over 9.00, the pIC50 [5] was 8.70 and the pIC50 [6] was over 8.00. The pIC50 [7] was 7.30 to 7.52.

Molecule `C=CC(=O)Nc1cc(Nc2ncc(Cl)c(Nc3cccc(C)c3N(C)C(C)=O)n2)c(OC)cc1N(C)CCN(C)C` [Example 85, N-(5-((5-chloro-4-((3-methyl-2-(N-methylacetamido)phenyl)amino)pyrimidin-2-yl)amino)-2-((2-(dimethylamino)ethyl)(methyl)amino)-4-methoxyphenyl)acrylamide] has a pIC50 [1] of 7.30 to 7.52, a pIC50 [2] of 7.30 to 7.52 and a pIC50 [3] of 7.37. The pIC50 [4] was 7.74, the pIC50 [5] was 6.06 and the pIC50 [6] was under 7.00. It also gave a pIC50 [7] of 7.52 to 8.00.

In the case of `C=CC(=O)Nc1cc(Nc2ncc(Cl)c(Nc3cccc4c3N(S(C)(=O)=O)CCC4)n2)c(OC)cc1N1CCC(N(C)C)CC1` [Example 49, N-(5-((5-chloro-4-((1-(methylsulfonyl)-1,2,3,4-tetrahydroquinolin-8-yl)amino)pyrimidin-2-yl)amino)-2-(4-(dimethylamino)piperidin-1-yl)-4-methoxyphenyl)acrylamide], the pIC50 [1] was 7.00 to 7.30, the pIC50 [2] was 7.00 to 7.30 and the pIC50 [3] was 8.00. The pIC50 [4] was 10.00, the pIC50 [5] was 7.22 and the pIC50 [6] was 7.00 to 7.30. For the same molecule, the pIC50 [7] was over 8.00.

Molecule `C=CC(=O)Nc1cc(Nc2ncc(C#N)c(Nc3cccc4c3N(C(C)=O)CC4)n2)c(OC)cc1N(C)CCN(C)C` [Example 99, N-(5-((4-((1-acetylindolin-7-yl)amino)-5-cyanopyrimidin-2-yl)amino)-2-((2-(dimethylamino)ethyl)(methyl)amino)-4-methoxyphenyl)acrylamide] has a pIC50 [1] of 7.52 to 8.00, a pIC50 [2] of 7.52 to 8.00 and a pIC50 [3] of 8.52. It also gave a pIC50 [4] of 9.00, a pIC50 [5] of 7.72 and a pIC50 [6] of 7.52 to 8.00. It also gave a pIC50 [7] of over 8.00.
